Measurements: PMC11153716 (Frontiers in Pharmacology, 2024)

Experiments:
Type in all cases: cell-based
[1] = target: T1, α1β3γ2L GABAARs (Homo sapiens, UniProt P14867+P18507+P28472); test: whole-cell patch clamp, potentiation of GABA-induced current
T1 construct: gene GABRA1; full-length wild-type subunits co-transfected 1:1:1 (plasmid ratio) in HEK293T cells; EGFP from a separate EF1a promoter on the GABRG2 plasmid; with Gamma-aminobutyric acid receptor subunit gamma-2

[2] = target: T1, α1β3γ2L GABAARs; test: whole-cell patch clamp, inhibition of GABA-induced current; conditions: 100 μM compound, 1 μM GABA, 15 s pre-treatment, -50 mV, pH 7.4, 22-25 °C
[3] = target: T1, α1β3γ2L GABAARs; test: as above; conditions: -50 mV, pH 7.4, 22-25 °C
[4] = target: T1, α1β3γ2L GABAARs; test: as above; conditions: -50 mV, pH 7.4, 22-25 °C; remark: listed apart in the source

T1 sequence (P14867 28-456): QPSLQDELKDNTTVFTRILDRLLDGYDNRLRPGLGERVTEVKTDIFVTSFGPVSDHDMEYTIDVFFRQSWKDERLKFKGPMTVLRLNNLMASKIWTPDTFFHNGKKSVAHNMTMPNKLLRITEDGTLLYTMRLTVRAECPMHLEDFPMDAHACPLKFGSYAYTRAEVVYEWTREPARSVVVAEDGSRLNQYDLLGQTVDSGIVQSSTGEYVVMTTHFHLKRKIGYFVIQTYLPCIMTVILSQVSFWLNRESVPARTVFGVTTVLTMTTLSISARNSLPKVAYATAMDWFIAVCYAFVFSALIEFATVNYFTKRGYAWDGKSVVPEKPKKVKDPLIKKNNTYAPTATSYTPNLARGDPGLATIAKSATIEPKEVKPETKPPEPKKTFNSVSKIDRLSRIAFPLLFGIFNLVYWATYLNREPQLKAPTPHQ
T1 sequence (P28472 26-473): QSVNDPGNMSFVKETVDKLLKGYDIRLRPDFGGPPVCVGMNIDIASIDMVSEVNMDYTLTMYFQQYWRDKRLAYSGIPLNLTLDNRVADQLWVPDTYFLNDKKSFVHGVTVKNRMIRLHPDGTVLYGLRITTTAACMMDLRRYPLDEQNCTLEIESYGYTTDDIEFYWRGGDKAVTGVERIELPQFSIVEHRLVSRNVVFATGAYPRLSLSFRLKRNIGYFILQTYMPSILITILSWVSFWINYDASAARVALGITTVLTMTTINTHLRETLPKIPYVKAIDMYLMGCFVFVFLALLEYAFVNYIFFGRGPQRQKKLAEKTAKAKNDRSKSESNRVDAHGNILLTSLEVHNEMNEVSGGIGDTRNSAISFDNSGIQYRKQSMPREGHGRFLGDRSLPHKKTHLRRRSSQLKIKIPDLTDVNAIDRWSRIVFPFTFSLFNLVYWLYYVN
T1 sequence (P18507 40-475): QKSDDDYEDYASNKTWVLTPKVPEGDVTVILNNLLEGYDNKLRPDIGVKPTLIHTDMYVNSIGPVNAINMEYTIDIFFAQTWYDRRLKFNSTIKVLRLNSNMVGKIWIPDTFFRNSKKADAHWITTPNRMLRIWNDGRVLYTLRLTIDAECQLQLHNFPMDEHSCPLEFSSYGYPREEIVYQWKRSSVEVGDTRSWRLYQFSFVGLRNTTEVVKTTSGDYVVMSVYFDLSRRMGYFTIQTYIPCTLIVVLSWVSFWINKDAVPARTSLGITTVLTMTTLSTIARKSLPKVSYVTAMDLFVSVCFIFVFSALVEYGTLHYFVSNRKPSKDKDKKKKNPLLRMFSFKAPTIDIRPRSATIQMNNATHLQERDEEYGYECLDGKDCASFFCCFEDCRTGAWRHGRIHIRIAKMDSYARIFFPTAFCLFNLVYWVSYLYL

Cc1ccc([C@]2(C)CCCC2(C)C)cc1 [(+)-Cuparene]
EC50 [1]: 15.1 ± 5.94 µM

COc1cc2c(cc1OC)C(=O)NCC2 [Corydaldine]
whole-cell patch clamp, inhibition of GABA-induced current [2]: kaempferol and corydaldine suppressed the GABA-induced current by more than half

O=C(O)[C@H](O)Cc1ccc(O)c(O)c1 [Danshensu]
I/I0 at 300 μM [3]: 0.89 ± 0.02

O=C1c2c(O)cc(O)cc2O[C@H](c2cc(O)c(O)c(O)c2)[C@H]1O [Dihydromyricetin]
I/I0 at 100 μM [4]: 0.63 ± 0.04

CCOC1O[C@H](CO)[C@@H](O)[C@H](O)[C@H]1O (stereo partly shown) [Ethyl glucoside]
EC50 [1]: 37 ± 8.56 µM

O=c1c(O)c(-c2ccc(O)cc2)oc2cc(O)cc(O)c12 [Kaempferol]
whole-cell patch clamp, inhibition of GABA-induced current [2]: kaempferol and corydaldine suppressed the GABA-induced current by more than half

C=C1CC/C=C(\C)CC[C@@H]2[C@@H]1CC2(C)C [β-Caryophyllene]
EC50 [1]: 46.9 ± 6.33 µM
